Source: ChEMBL document CHEMBL1127756 (Bioorg Med Chem Lett, 1994)
Numbered stars: 1 amine (or outer) side, 2 acyl side, 3 side chain; on linkers, the order of the positions; unused ones are H or OH. Square brackets hold non-standard residues; d marks the D form. Peptide text beside a SMILES is read from it. X1 = C/C=C/CC[C@H](N[*:1])C(=O)[*:2]; pGlu = O=C1CC[C@@H](C(=O)O)N1; Ahp(2) = CCCCC[C@H](N)C(=O)O

Legend:
[1] = molecular target: T1, Gastrin/cholecystokinin type B receptor (Mus musculus, UniProt P56481); experiment: Concentration producing half-maximal inhibition of specific binding of [125I]Bolton-Hunter CCK-8 to Cholecystokinin type B receptor in the mouse cerebral cortex; format: tissue-based
T1 sequence (P56481 whole entry): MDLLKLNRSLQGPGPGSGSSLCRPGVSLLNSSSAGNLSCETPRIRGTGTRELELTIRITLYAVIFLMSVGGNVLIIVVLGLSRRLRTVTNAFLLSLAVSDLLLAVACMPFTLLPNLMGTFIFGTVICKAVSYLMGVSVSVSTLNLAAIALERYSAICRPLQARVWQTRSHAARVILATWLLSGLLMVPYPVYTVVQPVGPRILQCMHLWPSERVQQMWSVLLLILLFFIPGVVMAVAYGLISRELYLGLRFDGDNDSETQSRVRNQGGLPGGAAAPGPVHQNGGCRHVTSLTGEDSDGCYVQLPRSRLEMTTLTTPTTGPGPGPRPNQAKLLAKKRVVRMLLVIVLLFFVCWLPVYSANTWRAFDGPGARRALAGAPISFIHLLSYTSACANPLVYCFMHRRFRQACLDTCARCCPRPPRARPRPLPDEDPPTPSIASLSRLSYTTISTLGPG

[2] = molecular target: T2, Cholecystokinin receptor type A (Rattus norvegicus, UniProt P30551); experiment: Concentration producing half-maximal inhibition of specific binding of [125I]Bolton-Hunter CCK-8 to Cholecystokinin type A receptor in the rat pancreas
T2 sequence (P30551 whole entry): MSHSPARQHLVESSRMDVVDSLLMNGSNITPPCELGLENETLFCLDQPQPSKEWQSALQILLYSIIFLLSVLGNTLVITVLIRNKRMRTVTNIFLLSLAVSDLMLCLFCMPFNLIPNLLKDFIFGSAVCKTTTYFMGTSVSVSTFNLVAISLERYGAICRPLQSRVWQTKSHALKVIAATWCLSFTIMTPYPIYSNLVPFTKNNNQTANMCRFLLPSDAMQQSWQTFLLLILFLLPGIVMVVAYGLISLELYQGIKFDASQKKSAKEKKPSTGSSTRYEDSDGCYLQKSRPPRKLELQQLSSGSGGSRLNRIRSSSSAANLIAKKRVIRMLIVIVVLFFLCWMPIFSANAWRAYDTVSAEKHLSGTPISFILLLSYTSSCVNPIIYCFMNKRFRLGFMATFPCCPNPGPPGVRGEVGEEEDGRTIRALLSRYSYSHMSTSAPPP

[3] = molecular target: Substance-P receptor (Cavia porcellus, UniProt P30547); experiment: Concentration producing half-maximal inhibition of specific binding of. [125I]Bolton-Hunter Substance P to NK-1 receptors in the guinea pig cerebral cortex; format: tissue-based
Chain of Substance-P receptor (P30547 whole entry): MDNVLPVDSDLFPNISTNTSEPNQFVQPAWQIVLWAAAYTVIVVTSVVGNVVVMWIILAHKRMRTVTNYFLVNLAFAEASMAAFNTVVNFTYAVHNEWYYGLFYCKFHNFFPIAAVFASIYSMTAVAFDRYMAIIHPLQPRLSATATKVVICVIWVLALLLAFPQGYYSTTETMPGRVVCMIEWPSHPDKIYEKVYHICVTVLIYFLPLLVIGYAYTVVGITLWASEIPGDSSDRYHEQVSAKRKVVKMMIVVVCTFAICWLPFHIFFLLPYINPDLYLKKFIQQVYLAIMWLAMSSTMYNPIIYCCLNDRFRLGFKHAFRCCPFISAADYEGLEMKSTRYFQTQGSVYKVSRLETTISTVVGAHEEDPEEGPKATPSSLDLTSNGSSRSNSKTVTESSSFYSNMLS

[4] = molecular target: T3, Substance-K receptor (Mesocricetus auratus, UniProt P51144); experiment: (§1) Concentration producing half-maximal inhibition of specific binding of. [125I]neurokinin A to NK-2 receptors in the hamster urinary bladder; format: single protein
T3 sequence (P51144 whole entry): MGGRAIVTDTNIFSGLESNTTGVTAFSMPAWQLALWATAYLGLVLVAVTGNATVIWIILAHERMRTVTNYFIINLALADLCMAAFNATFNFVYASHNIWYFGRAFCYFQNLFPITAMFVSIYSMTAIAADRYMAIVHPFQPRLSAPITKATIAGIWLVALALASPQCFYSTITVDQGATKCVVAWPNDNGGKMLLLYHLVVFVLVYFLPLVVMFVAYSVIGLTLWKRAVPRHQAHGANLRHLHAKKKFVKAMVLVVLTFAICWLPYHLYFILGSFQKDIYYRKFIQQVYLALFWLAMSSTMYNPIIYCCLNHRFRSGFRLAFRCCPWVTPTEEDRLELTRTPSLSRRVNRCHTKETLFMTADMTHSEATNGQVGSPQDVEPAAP

[5] = molecular target: T4, Neuromedin-K receptor (Cavia porcellus, UniProt P30098); experiment: (§2) Concentration producing half-maximal inhibition of specific binding of [3H]senktide to Tachykinin receptor 3 in the guinea pig cerebral cortex; format: tissue-based
T4 sequence (P30098 whole entry): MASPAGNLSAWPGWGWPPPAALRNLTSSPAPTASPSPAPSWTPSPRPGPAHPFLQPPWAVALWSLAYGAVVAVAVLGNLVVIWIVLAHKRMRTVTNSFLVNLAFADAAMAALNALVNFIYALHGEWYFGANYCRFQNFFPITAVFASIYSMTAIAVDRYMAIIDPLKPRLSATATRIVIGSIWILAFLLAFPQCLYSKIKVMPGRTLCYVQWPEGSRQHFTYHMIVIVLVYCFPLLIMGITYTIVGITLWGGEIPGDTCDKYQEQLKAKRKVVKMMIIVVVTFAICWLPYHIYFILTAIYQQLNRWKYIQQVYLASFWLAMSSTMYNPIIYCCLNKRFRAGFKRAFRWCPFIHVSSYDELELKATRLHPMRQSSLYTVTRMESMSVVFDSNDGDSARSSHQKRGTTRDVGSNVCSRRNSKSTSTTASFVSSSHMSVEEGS

[6] = molecular target: T5, Neuromedin-K receptor (Cavia porcellus) (UniProt P30098); experiment: as §2; format: tissue-based
T5 sequence (whole entry): T4 sequence (P30098 whole entry)

[7] = molecular target: T6, Substance-K receptor (Mesocricetus auratus) (UniProt P51144); experiment: as §1; conditions: Cricetulus griseus
T6 sequence (whole entry): T3 sequence (P51144 whole entry)

How did the IC50 [1] turn out when `C/C=C/CC[C@H](NC(=O)[C@@H](N)Cc1c[nH]c2ccccc12)C(=O)N[C@@H](CC(=O)O)C(=O)N[C@@H](Cc1ccccc1)C(N)=O` was run?
Its IC50 is 4.9 nM.

What about the IC50 [2] of the same compound?
Its IC50 is 8160 nM.

Which results are given for `CCCCC[C@H](NC(=O)[C@H](CC(C)C)NC(=O)CNC(=O)[C@H](Cc1ccccc1)NC(=O)[C@H](Cc1ccccc1)NC(=O)[C@H](CCC(N)=O)NC(=O)[C@H](CCC(N)=O)NC(C)=O)C(N)=O` (Ac-QQFFGL[Ahp(2)]-NH2)?
IC50 [3]: 44.7 nM; IC50 [4]: 637 nM; IC50 [5]: 533 nM

What does the source list for `C/C=C/CC[C@H](NC(=O)[C@H](CC(C)C)NC(=O)CNC(=O)[C@H](Cc1ccccc1)NC(=O)[C@H](Cc1ccccc1)NC(=O)[C@H](CCC(N)=O)NC(=O)[C@H](CCC(N)=O)NC(C)=O)C(N)=O` (Ac-QQFFGL[X1]-NH2)?
IC50 [3]: 115 nM; IC50 [4]: 1370 nM; IC50 [5]: 882 nM

What does the source list for `CCCCC[C@H](NC(=O)[C@@H](N)Cc1c[nH]c2ccccc12)C(=O)N[C@@H](CC(=O)O)C(=O)N[C@@H](Cc1ccccc1)C(N)=O` (H-W[Ahp(2)]DF-NH2)?
IC50 [1]: 2.83 nM; IC50 [2]: 8490 nM

For `CSCC[C@H](NC(=O)[C@H](CC(C)C)NC(=O)CNC(=O)[C@H](Cc1ccccc1)NC(=O)[C@H](Cc1ccccc1)NC(=O)[C@H](CCC(N)=O)NC(=O)[C@@H]1CCC(=O)N1)C(N)=O` ([pGlu]QFFGLM-NH2), which IC50 [3] is on record?
Its IC50 is 25.4 nM.

Which results are given for `CCCCC[C@H](NC(=O)[C@H](CC(C)C)NC(=O)CNC(=O)[C@H](Cc1ccccc1)NC(=O)[C@H](Cc1ccccc1)NC(=O)[C@H](CCC(N)=O)NC(=O)[C@@H]1CCC(=O)N1)C(N)=O` ([pGlu]QFFGL[Ahp(2)]-NH2)?
inhibition [6]: 25%; IC50 [3]: 97 nM; inhibition [7]: 47%

What does the source list for `C/C=C/CC[C@H](NC(=O)[C@H](CC(C)C)NC(=O)CNC(=O)[C@H](Cc1ccccc1)NC(=O)[C@H](Cc1ccccc1)NC(=O)[C@H](CCC(N)=O)NC(=O)[C@@H]1CCC(=O)N1)C(N)=O` ([pGlu]QFFGL[X1]-NH2)?
IC50 [3]: 366 nM; IC50 [4]: 2900 nM; IC50 [5]: 1880 nM

With `CSCC[C@H](NC(=O)[C@@H](N)Cc1c[nH]c2ccccc12)C(=O)N[C@@H](CC(=O)O)C(=O)N[C@@H](Cc1ccccc1)C(N)=O` [TETRAGASTRIN] as the compound, how does the IC50 [2] read?
Its IC50 is 4250 nM.

With Ac-QQFFGLM-NH2 as the compound, how does the IC50 [3] read?
The IC50 was 29.5 nM.

And the IC50 [4]?
Its IC50 is 1620 nM.

What about the IC50 [5] of the same compound?
The IC50 was 276 nM.

Which results are given for H-QQFFGLM-NH2?
IC50 [3]: 49.6 nM; IC50 [4]: 3290 nM; IC50 [5]: 1130 nM
